Reference: patent US10202658B2, “Methods for determining hypersusceptibility of HIV-1 to non-nucleoside reverse transcriptase inhibitors” (Monogram Biosciences, Inc., priority 2005, dated 2019)

Tested on: HIV-1 clinical isolates grouped by RT mutations
Assay: Pairwise comparison of NNRTI fold change between groups of clinical isolates (Student's T-test, Bonferroni's Multiple Comparison Test)
Type: cell-based
Procedure: This example provides methods and compositions for identifying mutations that correlate with hypersusceptibility to a NNRTI. Resistance test vectors were constructed and used as described in Example 1. Resistance test vectors derived from patient samples or clones derived from the resistance test vector pools were tested in a resistance assay to determine accurately and quantitatively the relative EFV, DLV, or NVP resistance or susceptibility compared to the median observed resistance or susceptibility.
To identify mutations associated with NNRTI hypersusceptibility, the following analysis was performed. […] The TAMs referenced in. Table 1 include M41L, D67N, K70R, L210W, T215FY, and K219X, while the NAMs referenced include K65R, T69X, L74IV, V75X, and M184IV. Isolates without NRTI, NNRTI or PI mutations served as a wild type (WT) reference group. Further comparison groups comprised isolates with three TAMS including T215Y (+/−H208Y, +/−V118I) or three TAMS including K70R. Scatter plots and statistical tests (See FIGS. 1-6) were generated using Prism 4.0 (GraphPad, San Diego, Calif.)
In addition, a pairwise comparison between two sets of data was conducted using Bonferroni's Multiple Comparison Test using the Prism 4.0 software. The results of the comparison are presented in Tables 2, 3, and 4, appended to the end of this document. Samples with K65R, K65R+M184V, or 2 TAMs in combination with T215Y had over 40% with EFV FC<0.4.

With `CC(C)Nc1cccnc1N1CCN(C(=O)c2cc3cc(NS(C)(=O)=O)ccc3[nH]2)CC1` [DLV, delavirdine] the “Mean Diff. of fold change” value (1 NAM vs 2 NAMs) was 0.2985, the “Mean Diff. of fold change” value (1 NAM vs 3 NAMs) was 0.293 and the “Mean Diff. of fold change” value (1 NAM vs K65R) was 0.3868. For the same compound, the “Mean Diff. of fold change” value (1 NAM vs K65R + M184V) was 0.5114, the “Mean Diff. of fold change” value (1 NAM vs K70R_3_TAMs) was −0.5755 and the “Mean Diff. of fold change” value (1 NAM vs M184V) was −0.007762. The “Mean Diff. of fold change” value (1 NAM vs T69) was −0.1256, the “Mean Diff. of fold change” value (1 NAM vs T215Y_3_TAMs) was 0.6784 and the “Mean Diff. of fold change” value (1 NAM vs T215Y_3_TAMs_118) was 0.6483. The “Mean Diff. of fold change” value (1 NAM vs T215Y_3_TAMs_208) was 0.7831, the “Mean Diff. of fold change” value (1 NAM vs T215Y_3_TAMs_no118) was 0.6983 and the “Mean Diff. of fold change” value (1 NAM vs T215Y_3_TAMs_no208) was 0.6612. For the same compound, the “Mean Diff. of fold change” value (2 NAMs vs 3 NAMs) was −0.005498, the “Mean Diff. of fold change” value (2 NAMs vs K65R) was 0.08826 and the “Mean Diff. of fold change” value (2 NAMs vs K65R + M184V) was 0.2128. The “Mean Diff. of fold change” value (2 NAMs vs K70R_3_TAMs) was −0.874, the “Mean Diff. of fold change” value (2 NAMs vs M184V) was −0.3063 and the “Mean Diff. of fold change” value (2 NAMs vs T69) was −0.4242. The “Mean Diff. of fold change” value (2 NAMs vs T215Y_3_TAMs) was 0.3799, the “Mean Diff. of fold change” value (2 NAMs vs T215Y_3_TAMs_118) was 0.3498 and the “Mean Diff. of fold change” value (2 NAMs vs T215Y_3_TAMs_208) was 0.4845. For the same compound, the “Mean Diff. of fold change” value (2 NAMs vs T215Y_3_TAMs_no118) was 0.3997, the “Mean Diff. of fold change” value (2 NAMs vs T215Y_3_TAMs_no208) was 0.3627 and the “Mean Diff. of fold change” value (3 NAMs vs K65R) was 0.09376. For the same compound, the “Mean Diff. of fold change” value (3 NAMs vs K65R + M184V) was 0.2183, the “Mean Diff. of fold change” value (3 NAMs vs K70R_3_TAMs) was −0.8685 and the “Mean Diff. of fold change” value (3 NAMs vs M184V) was −0.3008. For the same compound, the “Mean Diff. of fold change” value (3 NAMs vs T69) was −0.4187, the “Mean Diff. of fold change” value (3 NAMs vs T215Y_3_TAMs) was 0.3854 and the “Mean Diff. of fold change” value (3 NAMs vs T215Y_3_TAMs_118) was 0.3553. The “Mean Diff. of fold change” value (3 NAMs vs T215Y_3_TAMs_208) was 0.49, the “Mean Diff. of fold change” value (3 NAMs vs T215Y_3_TAMs_no118) was 0.4052 and the “Mean Diff. of fold change” value (3 NAMs vs T215Y_3_TAMs_no208) was 0.3682. The “Mean Diff. of fold change” value (K65R + M184V vs K70R_3_TAMs) was −1.087, the “Mean Diff. of fold change” value (K65R + M184V vs T215Y_3_TAMs) was 0.167 and the “Mean Diff. of fold change” value (K65R + M184V vs T215Y_3_TAMs_118) was 0.137. For the same compound, the “Mean Diff. of fold change” value (K65R + M184V vs T215Y_3_TAMs_208) was 0.2717, the “Mean Diff. of fold change” value (K65R + M184V vs T215Y_3_TAMs_no118) was 0.1869 and the “Mean Diff. of fold change” value (K65R + M184V vs T215Y_3_TAMs_no208) was 0.1499. The “Mean Diff. of fold change” value (K65R vs K65R + M184V) was 0.1246, the “Mean Diff. of fold change” value (K65R vs K70R_3_TAMs) was −0.9623 and the “Mean Diff. of fold change” value (K65R vs M184V) was −0.3946. For the same compound, the “Mean Diff. of fold change” value (K65R vs T69) was −0.5124, the “Mean Diff. of fold change” value (K65R vs T215Y_3_TAMs) was 0.2916 and the “Mean Diff. of fold change” value (K65R vs T215Y_3_TAMs_118) was 0.2615. For the same compound, the “Mean Diff. of fold change” value (K65R vs T215Y_3_TAMs_208) was 0.3963, the “Mean Diff. of fold change” value (K65R vs T215Y_3_TAMs_no118) was 0.3115 and the “Mean Diff. of fold change” value (K65R vs T215Y_3_TAMs_no208) was 0.2744. For the same compound, the “Mean Diff. of fold change” value (K70R_3_TAMs vs T215Y_3_TAMs_118) was 1.224, the “Mean Diff. of fold change” value (K70R_3_TAMs vs T215Y_3_TAMs_no118) was 1.274 and the “Mean Diff. of fold change” value (M184V vs K65R + M184V) was 0.5191. For the same compound, the “Mean Diff. of fold change” value (M184V vs K70R_3_TAMs) was −0.5677, the “Mean Diff. of fold change” value (M184V vs T69) was −0.1179 and the “Mean Diff. of fold change” value (M184V vs T215Y_3_TAMs) was 0.6862. For the same compound, the “Mean Diff. of fold change” value (M184V vs T215Y_3_TAMs_118) was 0.6561, the “Mean Diff. of fold change” value (M184V vs T215Y_3_TAMs_208) was 0.7908 and the “Mean Diff. of fold change” value (M184V vs T215Y_3_TAMs_no118) was 0.706. For the same compound, the “Mean Diff. of fold change” value (M184V vs T215Y_3_TAMs_no208) was 0.669, the “Mean Diff. of fold change” value (T69 vs K65R + M184V) was 0.637 and the “Mean Diff. of fold change” value (T69 vs K70R_3_TAMs) was −0.4499. For the same compound, the “Mean Diff. of fold change” value (T69 vs T215Y_3_TAMs) was 0.8041, the “Mean Diff. of fold change” value (T69 vs T215Y_3_TAMs_118) was 0.774 and the “Mean Diff. of fold change” value (T69 vs T215Y_3_TAMs_208) was 0.9087. For the same compound, the “Mean Diff. of fold change” value (T69 vs T215Y_3_TAMs_no118) was 0.8239, the “Mean Diff. of fold change” value (T69 vs T215Y_3_TAMs_no208) was 0.7869 and the “Mean Diff. of fold change” value (T215Y_3_TAMs vs K70R_3_TAMs) was −1.254. For the same compound, the “Mean Diff. of fold change” value (T215Y_3_TAMs vs T215Y_3_TAMs_118) was −0.03008, the “Mean Diff. of fold change” value (T215Y_3_TAMs vs T215Y_3_TAMs_208) was 0.1046 and the “Mean Diff. of fold change” value (T215Y_3_TAMs vs T215Y_3_TAMs_no118) was 0.01984. For the same compound, the “Mean Diff. of fold change” value (T215Y_3_TAMs vs T215Y_3_TAMs_no208) was −0.01718, the “Mean Diff. of fold change” value (T215Y_3_TAMs_208 vs K70R_3_TAMs) was −1.359 and the “Mean Diff. of fold change” value (T215Y_3_TAMs_208 vs T215Y_3_TAMs_118) was −0.1347. The “Mean Diff. of fold change” value (T215Y_3_TAMs_208 vs T215Y_3_TAMs_no118) was −0.0848, the “Mean Diff. of fold change” value (T215Y_3_TAMs_208 vs T215Y_3_TAMs_no208) was −0.1218 and the “Mean Diff. of fold change” value (T215Y_3_TAMs_no118 vs T215Y_3_TAMs_118) was −0.04992. For the same compound, the “Mean Diff. of fold change” value (T215Y_3_TAMs_no208 vs K70R_3_TAMs) was −1.237, the “Mean Diff. of fold change” value (T215Y_3_TAMs_no208 vs T215Y_3_TAMs_118) was −0.0129 and the “Mean Diff. of fold change” value (T215Y_3_TAMs_no208 vs T215Y_3_TAMs_no118) was 0.03702. For the same compound, the “mean fold change (FC) compared to the WT population” value (all groups containing NAMs or the combination of TAMs shown in Table 1, p<0.0001, Student's T-test) was “significantly lower”, the “Mean Diff. of fold change” value (wt vs 1 NAM) was 0.3819 and the “Mean Diff. of fold change” value (wt vs 2 NAMs) was 0.6804. The “Mean Diff. of fold change” value (wt vs 3 NAMs) was 0.6749, the “Mean Diff. of fold change” value (wt vs K65R) was 0.7687 and the “Mean Diff. of fold change” value (wt vs K65R + M184V) was 0.8932. The “Mean Diff. of fold change” value (wt vs K70R_3_TAMs) was −0.1936, the “Mean Diff. of fold change” value (wt vs M184V) was 0.3741 and the “Mean Diff. of fold change” value (wt vs T69) was 0.2562. The “Mean Diff. of fold change” value (wt vs T215Y_3_TAMs) was 1.06, the “Mean Diff. of fold change” value (wt vs T215Y_3_TAMs_118) was 1.03 and the “Mean Diff. of fold change” value (wt vs T215Y_3_TAMs_208) was 1.165. The “Mean Diff. of fold change” value (wt vs T215Y_3_TAMs_no118) was 1.08 and the “Mean Diff. of fold change” value (wt vs T215Y_3_TAMs_no208) was 1.043.
